In US12673946B2, “Pyrimidin-4(3H)-one derivatives as TRPV4 antagonists” (RaQualia Pharma Inc., priority 2020, dated 2026):

Biological target: T1, human TRPV4 (Homo sapiens, UniProt Q9HBA0)
T1 construct: host or cells: tetracycline-inducible Flp-In T-REx 293 cells
Test: Hypotonicity-induced Ca2+ influx (Fluo-4, FDSS)
Assay type: cell-based
Procedure, shortened: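 Flp-In T-REx 293 cells with tetracycline-induced human TRPV4, loaded with Fluo-4 for 60 min at 25 °C. Compound added 5 min before hypotonic mannitol/CaCl2 solution. Ca2+ signal recorded for 4.5 min on FDSS.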

[1] = Flp-In T-REx 293 cells expressing human TRPV4, examples listed under heading 'Human IC50<50 nM'
[2] = Flp-In T-REx 293 cells stably expressing human TRPV4, compounds listed by potency bin (<10 nM Tables 96-1/96-2, <3 nM Table 97)

T1 sequence (Q9HBA0 whole entry): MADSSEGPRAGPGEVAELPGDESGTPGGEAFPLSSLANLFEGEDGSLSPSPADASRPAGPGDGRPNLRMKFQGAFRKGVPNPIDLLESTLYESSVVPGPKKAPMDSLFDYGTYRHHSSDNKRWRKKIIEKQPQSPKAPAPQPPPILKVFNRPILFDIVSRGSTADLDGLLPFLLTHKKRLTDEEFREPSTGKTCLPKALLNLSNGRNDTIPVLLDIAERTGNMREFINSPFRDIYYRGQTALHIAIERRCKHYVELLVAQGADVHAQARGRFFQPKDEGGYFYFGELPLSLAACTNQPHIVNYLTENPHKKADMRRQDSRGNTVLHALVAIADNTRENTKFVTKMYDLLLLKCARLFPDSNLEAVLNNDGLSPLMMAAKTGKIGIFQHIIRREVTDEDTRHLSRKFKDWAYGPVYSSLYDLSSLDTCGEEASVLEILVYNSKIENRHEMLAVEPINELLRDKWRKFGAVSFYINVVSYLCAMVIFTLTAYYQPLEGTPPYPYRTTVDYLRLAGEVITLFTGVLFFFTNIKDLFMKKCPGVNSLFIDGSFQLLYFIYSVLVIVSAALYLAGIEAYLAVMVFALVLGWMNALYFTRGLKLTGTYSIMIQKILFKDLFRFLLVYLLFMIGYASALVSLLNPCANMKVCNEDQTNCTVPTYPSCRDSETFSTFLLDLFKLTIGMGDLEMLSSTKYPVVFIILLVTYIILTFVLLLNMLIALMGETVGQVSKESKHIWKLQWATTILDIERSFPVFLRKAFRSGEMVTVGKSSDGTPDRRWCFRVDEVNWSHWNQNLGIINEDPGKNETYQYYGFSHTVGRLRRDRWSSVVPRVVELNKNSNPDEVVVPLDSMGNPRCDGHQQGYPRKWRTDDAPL

SMILES: O=C([C@H](O)c1cccc(-c2cc(F)cc(Cl)c2)c1)N1CCc2nc(C3(c4cccc(Cl)c4)CC3)[nH]c(=O)c2C1 [45-9]
- IC50 [1]: < 50 nM

SMILES: O=C([C@H](O)c1cccc(-c2cc(Cl)cc(C(F)(F)F)c2)c1)N1CCc2nc(C3(c4cccc(Cl)c4)CC3)[nH]c(=O)c2C1 [45-10]
- IC50 [1]: < 50 nM
- IC50 [2]: < 10 nM

SMILES: O=C([C@H](O)c1cccc(-c2cc(Cl)cc(OC(F)(F)F)c2)c1)N1CCc2nc(C3(c4cccc(Cl)c4)CC3)[nH]c(=O)c2C1 [45-11]
- IC50 [1]: < 50 nM
- IC50 [2]: < 10 nM

SMILES: O=C(Cc1cccc(-c2cccc(OC(F)(F)F)c2)c1)N1CCc2nc(C3(c4cccc(Cl)c4)CC3)[nH]c(=O)c2C1 [45-12]
- IC50 [1]: < 50 nM
- IC50 [2]: < 10 nM

SMILES: CC(C)(C)c1cccc(-c2cccc(CC(=O)N3CCc4nc(C5(c6cccc(Cl)c6)CC5)[nH]c(=O)c4C3)c2)c1 [45-13]
- IC50 [1]: < 50 nM
- IC50 [2]: < 10 nM

SMILES: CC(C)c1cncc(C2(c3nc4c(c(=O)[nH]3)CN(C(=O)[C@H](O)c3cccc(-c5ccc(C(C)(C)C)cc5)c3)CC4)CC2)c1 [47-1]
- IC50 [1]: < 50 nM
- IC50 [2]: < 10 nM

SMILES: CC(C)c1cncc(C2(c3nc4c(c(=O)[nH]3)CN(C(=O)[C@H](O)c3cccc(-c5ccc(C(F)(F)F)cc5)c3)CC4)CC2)c1 [47-2]
- IC50 [1]: < 50 nM
- IC50 [2]: < 10 nM

SMILES: CC(C)c1cncc(C2(c3nc4c(c(=O)[nH]3)CN(C(=O)[C@H](O)c3cccc(-c5ccc(F)cc5)c3)CC4)CC2)c1 [47-3]
- IC50 [1]: < 50 nM
- IC50 [2]: < 10 nM

SMILES: CC(C)c1cncc(C2(c3nc4c(c(=O)[nH]3)CN(C(=O)[C@H](O)c3cccc(-c5ccc(Cl)cc5)c3)CC4)CC2)c1 [47-4]
- IC50 [1]: < 50 nM
- IC50 [2]: < 10 nM

SMILES: CC(C)c1cncc(C2(c3nc4c(c(=O)[nH]3)CN(C(=O)[C@H](O)c3cccc(-c5ccc(C(F)(F)F)nc5)c3)CC4)CC2)c1 [47-5]
- IC50 [1]: < 50 nM
- IC50 [2]: < 10 nM

SMILES: CC(C)c1cncc(C2(c3nc4c(c(=O)[nH]3)CN(C(=O)[C@H](O)c3cccc(-c5ccc(OC(F)(F)F)cc5)c3)CC4)CC2)c1 [47-6]
- IC50 [1]: < 50 nM
- IC50 [2]: < 10 nM

SMILES: O=C(C(O)c1cccc(-c2cccc(C(F)(F)F)c2)n1)N1CCc2nc(C3(c4ccccc4)CC3)[nH]c(=O)c2C1 (centres unmarked) [48-1]
- IC50 [1]: < 50 nM
- IC50 [2]: < 10 nM

SMILES: O=C(C(O)c1cccc(-c2cccc(OC(F)(F)F)c2)n1)N1CCc2nc(C3(c4ccccc4)CC3)[nH]c(=O)c2C1 (centres unmarked) [48-2]
- IC50 [1]: < 50 nM
- IC50 [2]: < 10 nM

SMILES: O=C(C(O)c1cccc(-c2ccnc(C(F)(F)F)c2)n1)N1CCc2nc(C3(c4ccccc4)CC3)[nH]c(=O)c2C1 (centres unmarked) [48-3]
- IC50 [1]: < 50 nM
- IC50 [2]: < 10 nM

SMILES: O=C(C(O)c1cncc(-c2cccc(C(F)(F)F)c2)c1)N1CCc2nc(C3(c4ccccc4)CC3)[nH]c(=O)c2C1 (centres unmarked) [48-4]
- IC50 [1]: < 50 nM
- IC50 [2]: < 10 nM

SMILES: O=C(C(O)c1cncc(-c2cccc(Cl)c2)c1)N1CCc2nc(C3(c4ccccc4)CC3)[nH]c(=O)c2C1 (centres unmarked) [48-5]
- IC50 [1]: < 50 nM
- IC50 [2]: < 10 nM

SMILES: O=C(C(O)c1cccc(-c2cccc(C3CC3)c2)n1)N1CCc2nc(C3(c4ccccc4)CC3)[nH]c(=O)c2C1 (centres unmarked) [48-6]
- IC50 [1]: < 50 nM
- IC50 [2]: < 10 nM

SMILES: O=C(C(O)c1cncc(-c2ccnc(C(F)(F)F)c2)c1)N1CCc2nc(C3(c4ccccc4)CC3)[nH]c(=O)c2C1 (centres unmarked) [48-7]
- IC50 [1]: < 50 nM

SMILES: O=C(C(O)c1cccc(-c2cccc(Cl)c2)n1)N1CCc2nc(C3(c4ccccc4)CC3)[nH]c(=O)c2C1 (centres unmarked) [48-8]
- IC50 [1]: < 50 nM

SMILES: CC(C)(C)c1cccc(-c2cccc(C(O)C(=O)N3CCc4nc(C5(c6ccccc6)CC5)[nH]c(=O)c4C3)n2)c1 (centres unmarked) [48-9]
- IC50 [1]: < 50 nM

SMILES: O=C(C(O)c1cccc(-c2cccc(F)c2)n1)N1CCc2nc(C3(c4ccccc4)CC3)[nH]c(=O)c2C1 (centres unmarked) [48-10]
- IC50 [1]: < 50 nM

SMILES: O=C(C(O)c1cncc(-c2cccc(F)c2)c1)N1CCc2nc(C3(c4ccccc4)CC3)[nH]c(=O)c2C1 (centres unmarked) [48-11]
- IC50 [1]: < 50 nM

SMILES: O=C(C(O)c1cccc(-c2cnc3ccccc3c2)c1)N1CCCc2nc(C3(c4ccccc4)CC3)[nH]c(=O)c2C1 (centres unmarked) [49-1]
- IC50 [1]: < 50 nM
- IC50 [2]: < 10 nM

SMILES: O=C(C(O)c1cccc(-c2cc(C(F)(F)F)cc(C(F)(F)F)c2)c1)N1CCCc2nc(C3(c4ccccc4)CC3)[nH]c(=O)c2C1 (centres unmarked) [49-2]
- IC50 [1]: < 50 nM
- IC50 [2]: < 10 nM

SMILES: O=C(C(O)c1cccc(-c2ccc(Cl)cc2)c1)N1CCCc2nc(C3(c4ccccc4)CC3)[nH]c(=O)c2C1 (centres unmarked) [49-3]
- IC50 [1]: < 50 nM
- IC50 [2]: < 10 nM

SMILES: O=C(C(O)c1cccc(-c2cc(F)cc(Cl)c2)c1)N1CCCc2nc(C3(c4ccccc4)CC3)[nH]c(=O)c2C1 (centres unmarked) [49-4]
- IC50 [1]: < 50 nM
- IC50 [2]: < 10 nM

SMILES: O=C(C(O)c1cccc(-c2ccnc(C(F)(F)F)c2)c1)N1CCCc2nc(C3(c4ccccc4)CC3)[nH]c(=O)c2C1 (centres unmarked) [49-5]
- IC50 [1]: < 50 nM
- IC50 [2]: < 10 nM

SMILES: O=C(C(O)c1cccc(-c2cccc(Cl)c2)c1)N1CCCc2nc(C3(c4ccccc4)CC3)[nH]c(=O)c2C1 (centres unmarked) [49-6]
- IC50 [1]: < 50 nM
- IC50 [2]: < 10 nM

SMILES: O=C(C(O)c1cccc(-c2cccc(OC(F)(F)F)c2)c1)N1CCCc2nc(C3(c4ccccc4)CC3)[nH]c(=O)c2C1 (centres unmarked) [49-7]
- IC50 [1]: < 50 nM
- IC50 [2]: < 10 nM

SMILES: O=C(C(O)c1cccc(-c2cccc(C(F)(F)F)c2)c1)N1CCCc2nc(C3(c4ccccc4)CC3)[nH]c(=O)c2C1 (centres unmarked) [49-8]
- IC50 [1]: < 50 nM
- IC50 [2]: < 10 nM

SMILES: O=C(C(O)c1cccc(-c2cccc(F)c2)c1)N1CCCc2nc(C3(c4ccccc4)CC3)[nH]c(=O)c2C1 (centres unmarked) [49-9]
- IC50 [1]: < 50 nM
- IC50 [2]: < 10 nM

SMILES: CC(C)(C)c1cccc(-c2cccc(C(O)C(=O)N3CCCc4nc(C5(c6ccccc6)CC5)[nH]c(=O)c4C3)c2)c1 (centres unmarked) [49-10]
- IC50 [1]: < 50 nM
- IC50 [2]: < 10 nM

SMILES: O=C(C(O)c1cccc(-c2ccc(OC(F)(F)F)cc2)c1)N1CCCc2nc(C3(c4ccccc4)CC3)[nH]c(=O)c2C1 (centres unmarked) [49-11]
- IC50 [1]: < 50 nM
- IC50 [2]: < 10 nM

SMILES: O=C([C@H](O)c1cccc(-c2cccc(F)c2)c1)N1CCCc2nc(C3(c4ccccc4)CC3)[nH]c(=O)c2C1 [49-12]
- IC50 [1]: < 50 nM
- IC50 [2]: < 10 nM

SMILES: O=C([C@H](O)c1cccc(-c2cccc(C(F)(F)F)c2)c1)N1CCCc2nc(C3(c4ccccc4)CC3)[nH]c(=O)c2C1 [49-13]
- IC50 [1]: < 50 nM
- IC50 [2]: < 3 nM

SMILES: O=C([C@H](O)c1cccc(-c2cccc(OC(F)(F)F)c2)c1)N1CCCc2nc(C3(c4ccccc4)CC3)[nH]c(=O)c2C1 [49-14]
- IC50 [1]: < 50 nM
- IC50 [2]: < 3 nM

SMILES: O=C([C@H](O)c1cccc(-c2cccc(Cl)c2)c1)N1CCCc2nc(C3(c4ccccc4)CC3)[nH]c(=O)c2C1 [49-15]
- IC50 [1]: < 50 nM
- IC50 [2]: < 3 nM

SMILES: CC(C)(C)c1cccc(-c2cccc([C@@H](O)C(=O)N3CCCc4nc(C5(c6ccccc6)CC5)[nH]c(=O)c4C3)c2)c1 [49-16]
- IC50 [1]: < 50 nM
- IC50 [2]: < 3 nM

SMILES: O=C([C@H](O)c1cccc(-c2ccnc(C(F)(F)F)c2)c1)N1CCCc2nc(C3(c4ccccc4)CC3)[nH]c(=O)c2C1 [49-17]
- IC50 [1]: < 50 nM
- IC50 [2]: < 3 nM

SMILES: O=C([C@H](O)c1cccc(-c2ccc(Cl)cc2)c1)N1CCCc2nc(C3(c4ccccc4)CC3)[nH]c(=O)c2C1 [49-18]
- IC50 [1]: < 50 nM
- IC50 [2]: < 3 nM

SMILES: O=C([C@H](O)c1cccc(-c2cncc(C(F)(F)F)c2)c1)N1CCCc2nc(C3(c4ccccc4)CC3)[nH]c(=O)c2C1 [49-21]
- IC50 [1]: < 50 nM

SMILES: O=C([C@H](O)c1cccc(-c2cccc(C(F)(F)F)n2)c1)N1CCCc2nc(C3(c4ccccc4)CC3)[nH]c(=O)c2C1 [49-22]
- IC50 [1]: < 50 nM
- IC50 [2]: < 3 nM
